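Here, GI50 denotes the concentration required for 50% inhibition of growth. The concentration for full growth arrest is given as TGI.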
How the values were obtained:
Assay in all cases: growth of human tumour cells (NCI), 384-well format
[1] = test system: PC-3 prostate
[2] = test system: COLO 205 colon
[3] = test system: T-47D breast
[4] = test system: MCF7 breast
[5] = test system: OVCAR-4 ovarian
[6] = test system: SF-295 CNS
[7] = test system: SF-268 CNS
[8] = test system: U251 glioblastoma
[9] = test system: DU-145 prostate
[10] = test system: SF-539 CNS
[11] = test system: SK-MEL-5 melanoma
[12] = test system: NCI-H226 lung
[13] = test system: A498 renal
[14] = test system: IGROV1 ovarian
[15] = test system: ACHN renal
[16] = test system: NCI-H460 NSCLC
[17] = test system: UACC-62 melanoma
[18] = test system: NCI-H23 lung
[19] = test system: NCI-H522 lung
[20] = test system: RPMI-8226 leukemia
[21] = test system: SNB-19 CNS
[22] = test system: HCT-15 colon
[23] = test system: TK-10 renal
[24] = test system: MDA-MB-231 breast
[25] = test system: HS 578T breast
[26] = test system: OVCAR-8 ovarian
[27] = test system: HCT-116 colon
[28] = test system: HOP-62 NSCLC
[29] = test system: CAKI-1 renal
[30] = test system: HT29 colon
[31] = test system: MDA-MB-435 melanoma
[32] = test system: OVCAR-5 ovarian
[33] = test system: MALME-3M melanoma
[34] = test system: MOLT-4 leukemia
[35] = test system: KM12 colon
[36] = test system: RXF 393 renal
[37] = test system: UACC-257 melanoma
[38] = test system: HOP-92 NSCLC
[39] = test system: EKVX NSCLC
[40] = test system: OVCAR-3 ovarian
[41] = test system: SN12C renal
[42] = test system: NCI-H322M lung
[43] = test system: LOX IMVI melanoma
[44] = test system: NCI/ADR-RES ovarian
[45] = test system: SNB-75 CNS
[46] = test system: BT-549 breast
[47] = test system: SK-MEL-28 melanoma
[48] = test system: A549 NSCLC
[49] = test system: M14 melanoma
[50] = test system: SR leukemia
[51] = test system: HL-60(TB) leukemia
[52] = test system: SK-OV-3 ovarian
[53] = test system: HCC-2998 colon
[54] = test system: MDA-MB-468 breast

## COC1CCN(C(=O)c2cc(Cc3n[nH]c(=O)c4ccccc34)ccc2F)CC1
[1]
  GI50: > 100 µM
  TGI: > 100 µM
[2]
  GI50: > 100 µM
  TGI: > 100 µM
[3]
  GI50: > 100 µM
  TGI: > 100 µM
[4]
  GI50: 68.1 µM
  TGI: > 100 µM
[5]
  GI50: > 100 µM
  TGI: > 100 µM
[6]
  GI50: 11.4 µM
  TGI: > 100 µM
[7]
  GI50: 44.5 µM
  TGI: > 100 µM
[8]
  GI50: 25.8 µM
  TGI: > 100 µM
[9]
  GI50: 68.2 µM
  TGI: > 100 µM
[10]
  GI50: 27.3 µM
  TGI: > 100 µM
[11]
  GI50: 74.2 µM
  TGI: > 100 µM
[12]
  GI50: > 100 µM
  TGI: > 100 µM
[13]
  GI50: > 100 µM
  TGI: > 100 µM
[14]
  GI50: > 100 µM
  TGI: > 100 µM
[15]
  GI50: > 100 µM
  TGI: > 100 µM
[16]
  GI50: 5.93 µM
  TGI: 56.1 µM
[17]
  GI50: > 100 µM
  TGI: > 100 µM
[18]
  GI50: 59.7 µM
  TGI: > 100 µM
[19]
  GI50: > 100 µM
  TGI: > 100 µM
[20]
  GI50: 46.6 µM
  TGI: > 100 µM
[21]
  GI50: 46.9 µM
  TGI: > 100 µM
[22]
  GI50: > 100 µM
  TGI: > 100 µM
[23]
  GI50: > 100 µM
  TGI: > 100 µM
[24]
  GI50: 81 µM
  TGI: > 100 µM
[25]
  GI50: > 100 µM
  TGI: > 100 µM
[26]
  GI50: 22.6 µM
  TGI: > 100 µM
[27]
  GI50: 28.7 µM
  TGI: > 100 µM
[28]
  GI50: 10.4 µM
  TGI: 49.8 µM
[29]
  GI50: > 100 µM
  TGI: > 100 µM
[30]
  GI50: > 100 µM
  TGI: > 100 µM
[31]
  GI50: > 100 µM
  TGI: > 100 µM
[32]
  GI50: > 100 µM
  TGI: > 100 µM
[33]
  GI50: > 100 µM
  TGI: > 100 µM
[34]
  GI50: 4.06 µM
  TGI: 14.2 µM
[35]
  GI50: > 100 µM
  TGI: > 100 µM
[36]
  GI50: > 100 µM
  TGI: > 100 µM
[37]
  GI50: > 100 µM
  TGI: > 100 µM
[38]
  GI50: > 100 µM
  TGI: > 100 µM
[39]
  GI50: > 100 µM
  TGI: > 100 µM
[40]
  GI50: 7.79 µM
  TGI: > 100 µM
[41]
  GI50: 46.1 µM
  TGI: > 100 µM
[42]
  GI50: > 100 µM
  TGI: > 100 µM
[43]
  GI50: 33.5 µM
  TGI: > 100 µM
[44]
  GI50: 34.9 µM
  TGI: > 100 µM
[45]
  GI50: 94.7 µM
  TGI: > 100 µM
[46]
  GI50: 84.6 µM
  TGI: > 100 µM
[47]
  GI50: > 100 µM
  TGI: > 100 µM
[48]
  GI50: > 100 µM
  TGI: > 100 µM
[49]
  GI50: 74.7 µM
  TGI: > 100 µM
[50]
  GI50: 0.364 µM
  TGI: 2.45 µM
[51]
  GI50: 10.4 µM
  TGI: 29.7 µM
[52]
  GI50: 32.3 µM
  TGI: > 100 µM
[53]
  GI50: 63.7 µM
  TGI: > 100 µM
[54]
  GI50: 9.62 µM
  TGI: 33.3 µM

— PubChem BioAssay (NCI)
